Article PMC6009889, “Kinetic and structural studies on the interactions of Torpedo californica acetylcholinesterase with two donepezil-like rigid analogues” (Journal of Enzyme Inhibition and Medicinal Chemistry, 2018)
Like-named read-outs stand apart in the source and are kept apart here.

How the values were obtained:
[1] = target: Torpedo californica AChE (TcAChE) (Tetronarce californica, UniProt P04058); test: biochemical; type: biochemical; settings: for Type of inhibition: Lineweaver-Burk, Dixon and Cornish-Bowden plots
Chain of Torpedo californica AChE (TcAChE) (P04058 22-586): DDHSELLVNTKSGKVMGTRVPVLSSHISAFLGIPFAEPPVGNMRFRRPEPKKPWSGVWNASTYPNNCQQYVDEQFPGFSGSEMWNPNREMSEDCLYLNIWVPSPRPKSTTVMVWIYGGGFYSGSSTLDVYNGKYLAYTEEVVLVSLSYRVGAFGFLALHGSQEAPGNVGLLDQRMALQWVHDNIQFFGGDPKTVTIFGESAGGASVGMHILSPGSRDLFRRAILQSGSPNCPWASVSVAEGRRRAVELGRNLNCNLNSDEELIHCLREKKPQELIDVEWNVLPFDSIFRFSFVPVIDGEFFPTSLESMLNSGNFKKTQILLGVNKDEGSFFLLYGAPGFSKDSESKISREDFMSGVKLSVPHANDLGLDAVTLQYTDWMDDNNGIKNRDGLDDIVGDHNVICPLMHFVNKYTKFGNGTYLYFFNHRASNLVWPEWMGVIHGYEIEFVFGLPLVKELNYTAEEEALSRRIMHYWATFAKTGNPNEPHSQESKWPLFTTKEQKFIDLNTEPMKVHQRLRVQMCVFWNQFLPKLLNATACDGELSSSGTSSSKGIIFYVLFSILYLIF
Protocol: The enzymatic activity of TcAChE was evaluated spectrophotometrically at room temperature by Ellman’s method[42] using a GE Ultrospec 7000 double beam spectrophotometer. […] The reaction was initiated by addition to the reaction mixture of the substrate acetylthiocoline (Sigma-Aldrich, Milan, Italy). To gain insights into the mechanism of action of 1, 2 and DNP, reciprocal plots of 1/velocity versus 1/[substrate] were constructed at substrate concentration in the 10–200 µM range. Data points are average values of three replicates. Three concentrations of inhibitors were selected for this study: 5, 10, and 20 nM. The plots were assessed by a weighted least-squares analysis that assumed the variance of the velocity (v) to be a constant percentage of v for the entire data set. Calculation of the inhibitor constant (Ki) value was carried out by re-plotting slopes of lines from the Lineweaver–Burk plot versus the inhibitor concentration and Ki was determined as the intersect on the negative x-axis. The apparent Ki’ (dissociation constant for the enzyme–substrate–inhibitor complex) value was determined by plotting the apparent 1/vmax versus inhibitor concentration. Data analyzes were performed with Graph 4.4.2.

mouse BACE-1 = settings: read-out: IC50 for mouse BACE-1 inhibition; cited from earlier work

Row | SMILES | Ki [1] | Type of inhibition [1] | IC50 (mouse BACE-1) | Ki ([1]; acetylthiocholine 10–200 µM, inhibitor 5, 10, 20 nM, K-phosphate buffer pH 7.0, room temperature, read-out: Ki (dissociation constant for free enzyme))
1 | COc1cc2c(cc1OC)C(=O)/C(=C/C1CCN(Cc3ccccc3)CC1)C2 [compound 1] | 11.1 ± 2.88 nM | mixed-type inhibition | 697 nM | –
2 | COc1ccc2c(c1)C/C(=C\C1CCN(Cc3ccccc3)CC1)C2=O [compound 2] | – | mixed-type inhibition | 333 nM | 29.9 ± 1.12 nM
